# From patent US6506767B1, “8-chloro-6,11-dihydro-11-(4-piperidylidine)-5H-benzo[5,6]cyclohepta[1-2-b] pyridine” (Schering Corporation, priority 1997, dated 2003)
# Assays:
# [1] = system: histamine—induced lethality in guinea pigs; assay: prevention of histamine-induced lethality in guinea pigs; type: in vivo; settings: standard animal model
# [2] = Stability testing for crystalline polymorph form 1; type: physicochemical; settings: 25, 30 and 40° C. at relative humidities of 60%, 60% and 75%, respectively
compound,measurement,setting,value
"Clc1ccc2c(c1)CCc1cccnc1C2=C1CCNCC1 [form 1, 8-chloro-6,11-dihydro-11-(4-piperidylidene)-5H-benzo[5,6]cyclohepta[1,2-b]pyridine]",antihistaminic properties: prevention of histamine—induced lethality,[1],demonstrated
same,change from initial sample % form 1 and related compounds,[2],< 1%
